Results on 4 compounds are retold here after patent publication US20180222922A1, “RADIOFLUORINATED 7-AMINO-5-THIO-THIAZOLO[4,5-D]PYRIMIDINES FOR IMAGING FRACTALKINE RECEPTOR (CX3CR1)” (THE JOHNS HOPKINS UNIVERSITY, priority 2015, published 2018).

Data set [1] in a line: small animal PET imaging of 2-[18F]FBTTP in healthy mice. Type of data set: in vivo. Particulars: 350 μCi via tail vein, PET at 10 min, 30 min, 1 hour and 2 hours post-injection. As for the experimental part:
(R)-2-((2-amino-5-mercaptothiazolo[4,5-d]pyrimidin-7-yl)amino)-4-methylpentan-1-ol was synthesized as previously reported (Karlstrom et al., 2013) and alkylated with 2-[^18F]fluoro-benzylbromide to produce 2-[^18F]FBTTP. 2-[^18F]fluorobenzylbromide was prepared by a one-pot microwave radiofluorination of 2-formyl-N,N,N-trimethylbenzenanilinium triflate followed by sodium borohydride reduction, and bromination with 48% HBr using a procedure analogous to that reported for the preparation of 4-[^18F]fluoro-benzylbromide (Cho et al., 2012; Ravert et al., 2014). 2-[^18F]FBTTP (350 μCi) was injected via the tail vein of healthy mice and imaged using small animal PET. Images were collected at 10, 30, 60, and 120 min post-injection. 2-[^18F]FBTTP was prepared in a decay corrected yield of 10.2% in a specific activity of 1500 Ci/mmol (55,500 GBq/mmol) in a total synthesis time of 110 min.
To evaluate in vivo pharmacokinetics of 2-[^18F]FBTTP, 350 μCi of the radiotracer was formulated in 200 μL of saline with 10% ethanol and injected into healthy mice via the tail vein. The images were collected at 10 min, 30 min, 1 hour and 2 hours post-injection.

A further data set concerns the target T1, CXCR2 (Homo sapiens, UniProt P25025).
T1 sequence (P25025 1-360): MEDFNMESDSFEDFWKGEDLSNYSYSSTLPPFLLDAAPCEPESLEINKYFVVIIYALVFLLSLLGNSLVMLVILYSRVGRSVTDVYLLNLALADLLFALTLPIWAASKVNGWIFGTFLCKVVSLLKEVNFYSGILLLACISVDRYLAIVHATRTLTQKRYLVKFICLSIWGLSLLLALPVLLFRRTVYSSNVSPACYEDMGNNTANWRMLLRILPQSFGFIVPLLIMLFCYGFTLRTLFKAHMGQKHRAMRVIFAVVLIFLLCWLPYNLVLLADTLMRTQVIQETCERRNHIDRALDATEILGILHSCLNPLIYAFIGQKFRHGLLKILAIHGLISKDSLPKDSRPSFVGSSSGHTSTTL
Particulars: cited from earlier work; for Ki: binding affinity, reported.

A further data set addresses T2, CX3CR1 (Homo sapiens, UniProt P49238).
T2 sequence (P49238 1-355): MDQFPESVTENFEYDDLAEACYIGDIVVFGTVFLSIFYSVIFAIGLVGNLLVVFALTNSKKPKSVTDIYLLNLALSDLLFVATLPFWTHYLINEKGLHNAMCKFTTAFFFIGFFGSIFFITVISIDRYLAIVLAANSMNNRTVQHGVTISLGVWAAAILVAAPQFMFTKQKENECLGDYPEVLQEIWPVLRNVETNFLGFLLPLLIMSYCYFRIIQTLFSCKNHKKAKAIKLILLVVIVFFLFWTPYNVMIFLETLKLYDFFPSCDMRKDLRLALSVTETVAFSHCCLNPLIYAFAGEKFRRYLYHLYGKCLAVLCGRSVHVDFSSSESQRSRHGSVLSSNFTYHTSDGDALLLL
Particulars: binding affinity, reported; cited from earlier work.

The structures appear in SMILES notation.

As for `CC(C)CC(CO)Nc1nc(SCc2ccccc2[18F])nc2nc(N)sc12` (centres unmarked) [2-[^18F]FBTTP, 2-((2-amino-5-((2-[18F]fluorobenzyl)thio)thiazolo[4,5-d]pyrimidin-7-yl)amino)-4-methylpentan-1-ol], the in vivo pharmacokinetics result in data set [1] is given as “favorable in vivo pharmacokinetics”.

Turning to `CC(C)C[C@H](CO)Nc1nc(SCc2ccccc2F)nc2nc(N)sc12` [Compound 9d, (R)-2-((2-amino-5-((2-fluorobenzyl)thio)thiazolo[4,5-d]pyrimidin-7-yl)amino)-4-methylpentan-1-ol], at CXCR2 (CX3CR1 over CXCR2), the “selectivity over CXCR2” value is given as 18 fold.

Take `CC(C)C[C@H](CO)Nc1nc(SC(C)c2ccccc2F)nc2nc(N)sc12` (stereo partly drawn) [Compound 9e, (2R)-2-((2-amino-5-((1-(2-fluorophenyl)ethyl)thio)thiazolo[4,5-d]pyrimidin-7-yl)amino)-4-methylpentan-1-ol]: the Ki is 4.7 nM at CX3CR1 and 1400 nM at CXCR2.

Turning to `CC(C)C[C@H](CO)Nc1nc(SCc2ccc(Br)cc2F)nc2nc(N)sc12` [Compound 9f, (R)-2-((2-amino-5-((4-bromo-2-fluorobenzyl)thio)thiazolo[4,5-d]pyrimidin-7-yl)amino)-4-methylpentan-1-ol], the Ki on CXCR2 was 1400 nM.

Broadly, the Ki is the equilibrium dissociation constant of an inhibitor or competing ligand from its target.
